45 compounds from ChEMBL document CHEMBL2010673, “Structure-activity relationship of pyrrole based S-nitrosoglutathione reductase inhibitors: carboxamide modification” (Bioorg Med Chem Lett, 2012) can be followed below.

Molecules are shown by their SMILES. Some results are limits rather than exact numbers.

The first data set has as its system A549. As to the kind of experiment: Cytotoxicity against human A549 cells after 48 hrs by MTS assay. Format: cell-based. The note with it: A549, 48 h. On the technique in general: Tetrazolium assays rely on reduction of a dye to a coloured formazan, in cell work by metabolically active cells.
`Cc1cc(NS(C)(=O)=O)ccc1-n1c(CCC(=O)O)ccc1-c1cc(-n2ccnc2C)cs1`: the IC50 was > 150 µM. As for `Cc1nccn1-c1ccc(-c2ccc(CCC(=O)O)n2-c2ccc(O)cc2)s1`, the half-inhibitory concentration (IC50) is > 150 µM. With `Cc1nccn1-c1ccc(-c2ccc(CCC(=O)O)n2-c2ccc(S(N)(=O)=O)cc2)s1`, the IC50 was > 150 µM. Same read-out and setting: in the case of `Cc1cc(S(N)(=O)=O)ccc1-n1c(CCC(=O)O)ccc1-c1ccc(-n2ccnc2C)s1` it was > 150 µM.

Tested on in a further data set: not listed separately
As to the kind of experiment: Oral bioavailability in BALB/c mouse at 10 mg/kg by LC-MS/MS analysis. The class given is ADME, organism-based. The following applies: in vivo.
Take `Cc1nccn1-c1ccc(-c2ccc(CCC(=O)O)n2-c2ccc(O)cc2)s1`: the bioavailability came to 3.9%. As to `O=C(O)CCc1ccc(-c2ccc(-n3ccnc3)cc2)n1-c1ccc(O)cc1`, the bioavailability came to 6.8%.

Tested on in a further data set: not listed separately
As to the kind of experiment: Plasma clearance in BALB/c mouse at 2 mg/kg, iv by LC-MS/MS analysis.
Conditions: not given; call rule not given here
Format: ADME, organism-based. More on the design: dose 2 mg/kg, route intravenous.
As to `Cc1nccn1-c1ccc(-c2ccc(CCC(=O)O)n2-c2ccc(O)cc2)s1`, the clearance turned out to be 23.9 mL/min/kg. Take `O=C(O)CCc1ccc(-c2ccc(-n3ccnc3)cc2)n1-c1ccc(O)cc1`: the clearance is 37.1 mL/min/kg.

Tested on in a further data set: not listed separately
As to the kind of experiment: Inhibition of Smt-tagged S-nitrosoglutathione reductase expressed in Escherichia coli using […] as substrate for 3 mins by spectrophotometric analysis.
Conditions: not given
As for `CCOC(=O)CCc1ccc(-c2ccc(OC)cc2)n1-c1ccc(CC(N)=O)cc1`, the IC50 entry is listed as “Not Active”.

The same data set, now with this note: read-out: IC50.
With `CCOC(=O)CCc1ccc(-c2ccc(OC)cc2)n1-c1ccc(OC)cc1C`, the IC50 was found to be 1.8 µM. Turning to `COCC(=O)Nc1ccc(-n2c(CCC(=O)O)ccc2-c2ccc(-n3ccnc3)cc2)c(C)c1`, the concentration for half-maximal inhibition (IC50) came out at 0.096 µM.

Take `Cc1cc(O)ccc1-n1c(CCC(=O)O)ccc1-c1ccc(-n2ccnc2)cc1`: the IC50 came to 0.18 µM.

On to `CC(=O)Nc1ccc(-n2c(CCC(=O)O)ccc2-c2ccc(-n3ccnc3)cc2)c(C)c1`, for which the IC50 was 0.056 µM. As for `CCOC(=O)CCc1ccc(-c2ccc(OC)cc2)n1-c1ccc(O)cc1C`, the IC50 is 1.55 µM. In the case of `Cc1cc(NS(C)(=O)=O)ccc1-n1c(CCC(=O)O)ccc1-c1cc(-n2ccnc2C)cs1`, the IC50 was 0.076 µM. Turning to `O=C(O)CCc1ccc(-c2ccc(-n3ccnc3)s2)n1-c1ccc(O)cc1`, the IC50 came to 0.032 µM. The same measure, in the same setting: in the case of `CCOC(=O)CCc1ccc(-c2ccc(OC)cc2)n1-c1ccc(NS(N)(=O)=O)cc1C` it was 0.71 µM; in that of `CCOC(=O)CCc1ccc(-c2ccc(OC)cc2)n1-c1ccc(OC)cc1`, 1.02 µM. With `CCOC(=O)CCc1ccc(-c2ccc(OC)cc2)n1-c1ccc(C(=O)Nc2cccnc2)cc1C`, the IC50 is 0.44 µM.

Turning to `Cc1nccn1-c1ccc(-c2ccc(CCC(=O)O)n2-c2ccc(O)cc2)s1`, the IC50 was 0.036 µM. Still for that read-out and setting: in the case of `CCOC(=O)CCc1ccc(-c2ccc(OC)cc2)n1-c1ccc(NC(N)=O)cc1` it was 4.8 µM; in that of `CCOC(=O)CCc1ccc(-c2ccc(OC)cc2)n1-c1ccc(C)cc1C`, 8.84 µM; in that of `Cc1nccn1-c1ccc(-c2ccc(CCC(=O)O)n2-c2ccc(O)cc2)cc1`, 0.054 µM. On to `Cc1nccn1-c1ccc(-c2ccc(CCC(=O)O)n2-c2ccc(NS(C)(=O)=O)cc2)cc1`, for which the IC50 came to 1.79 µM. On the same count and under the same terms, for `Cc1cc(NS(C)(=O)=O)ccc1-n1c(CCC(=O)O)ccc1-c1ccc(-n2ccnc2C)cc1` the value was 0.18 µM; for `Cc1cc(CN)ccc1-n1c(CCC(=O)O)ccc1-c1ccc(-n2ccnc2)cc1`, 1.59 µM; for `CCOC(=O)CCc1ccc(-c2ccc(Br)cc2)n1-c1ccc(C(=O)Nc2ccncc2)cc1C`, 0.061 µM. On the same count and under the same terms, in the case of `CCOC(=O)CCc1ccc(-c2ccc(OC)cc2)n1-c1ccc(C(N)=O)cc1` it was 0.46 µM; in that of `Cc1cc(C(=O)O)ccc1-n1c(CCC(=O)O)ccc1-c1ccc(-n2ccnc2)cc1`, 0.11 µM. The same measure, in the same setting: for `CCOC(=O)CCc1ccc(-c2ccc(OC)cc2)n1-c1ccc(C(=O)NC)cc1C` the value was 2.41 µM; for `CCOC(=O)CCc1ccc(-c2ccc(OC)cc2)n1-c1ccc(C(=O)NC)cc1`, 4.56 µM; for `Cc1nccn1-c1ccc(-c2ccc(CCC(=O)O)n2-c2ccc(S(N)(=O)=O)cc2)s1`, 0.023 µM. Take `Cc1nccn1-c1cc(-c2ccc(CCC(=O)O)n2-c2ccc(O)cc2)cs1`: the IC50 is 0.045 µM. Still for that read-out and setting: for `CCOC(=O)CCc1ccc(-c2ccc(OC)cc2)n1-c1ccc(C(=O)Nc2cncnc2)cc1C` the value was 3.74 µM; for `CCOC(=O)CCc1ccc(-c2ccc(OC)cc2)n1-c1ccc(C(=O)NCCOC)cc1C`, 0.73 µM; for `CC(=O)Nc1ccc(-n2c(CCC(=O)O)ccc2-c2ccc(-n3ccnc3C)cc2)c(C)c1`, 0.45 µM. Still for that read-out and setting: for `CCOC(=O)CCc1ccc(-c2ccc(OC)cc2)n1-c1ccc(C(=O)NCCO)cc1C` the value was 0.66 µM; for `Cc1cc(S(N)(=O)=O)ccc1-n1c(CCC(=O)O)ccc1-c1ccc(-n2ccnc2C)s1`, 0.022 µM. As for `CCOC(=O)CCc1ccc(-c2ccc(OC)cc2)n1-c1ccc(O)cc1`, the IC50 is 0.24 µM. As for `CCOC(=O)CCc1ccc(-c2ccc(OC)cc2)n1-c1ccc(Br)cc1`, the IC50 amounted to 3.25 µM. Turning to `CCOC(=O)CCc1ccc(-c2ccc(OC)cc2)n1-c1ccc(C(=O)Nc2ccncc2)cc1C`, the IC50 worked out at 0.17 µM. Regarding `Cc1nccn1-c1csc(-c2ccc(CCC(=O)O)n2-c2ccc(O)cc2)c1`, the half-maximal inhibitory concentration (IC50) is 0.096 µM. As to `O=C(O)CCc1ccc(-c2ccc(-n3ccnc3)cc2)n1-c1ccc(O)cc1`, the IC50 was determined as 0.039 µM. Consider `CCOC(=O)CCc1ccc(-c2ccc(OC)cc2)n1-c1ccc(C(C)=O)cc1`, for which the IC50 was 0.96 µM. On to `CCOC(=O)CCc1ccc(-c2ccc(OC)cc2)n1-c1ccc(C(=O)N(C)C)cc1C`, for which the 50% inhibitory concentration (IC50) came out at 1.31 µM. Turning to `Cc1nccn1-c1csc(-c2ccc(CCC(=O)O)n2-c2ccc(NS(C)(=O)=O)cc2)c1`, the IC50 amounted to 0.36 µM.

For `CCOC(=O)CCc1ccc(-c2ccc(OC)cc2)n1-c1ccc(NC(C)=O)cc1`, the 50% inhibitory concentration (IC50) worked out at 3.27 µM. Still for that read-out and setting: in the case of `CCOC(=O)CCc1ccc(-c2ccc(OC)cc2)n1-c1ccc(S(N)(=O)=O)cc1C` it was 0.33 µM; in that of `CC(=O)Nc1ccc(-n2c(CCC(=O)O)ccc2-c2ccc(-n3ccnc3C)cc2)cc1`, 3.89 µM. `CCOC(=O)CCc1ccc(-c2ccc(OC)cc2)n1-c1ccc(C(=O)Nc2ccnnc2)cc1C`: the IC50 came to 0.64 µM. On the same count and under the same terms, for `CC(=O)Nc1ccc(-n2c(CCC(=O)O)ccc2-c2cc(-n3ccnc3C)cs2)cc1` the value was 0.14 µM; for `Cc1cc(N)ccc1-n1c(CCC(=O)O)ccc1-c1ccc(-n2ccnc2)cc1`, 1.41 µM; for `CCC(=O)Nc1ccc(-n2c(CCC(=O)O)ccc2-c2ccc(-n3ccnc3)cc2)c(C)c1`, 0.088 µM.

Usually IC50 stands for the point on the concentration scale where inhibition reaches its midpoint. For orientation: bioavailability means the share of a dose that reaches the circulation, judged against a reference dose that is usually intravenous. As a reminder, the clearance is a measure of how efficiently the substance is removed, as volume per time. A higher clearance goes with efficient removal.
